The record followed here is patent US8759400B2, “Histone deacetylase inhibitors for enhancing activity of antifungal agents” (MethylGene Inc., priority 2005, dated 2014).

The assay has as its system C. glabrata parent strain (ATCC 90030) and C. glabrata mutants. Kind of assay: microbe, parasite or virus in culture. In kind it is cell-based. The following applies: for MIC80: C. glabrata parent strain.
[1] abbreviates: C. glabrata (ATCC 90030) parent strain.

SMILES strings stand for the structures. ≈ marks a conversion by molar mass, not a printed value. Read-outs that look alike come from different tables or passages of the source.

Consider `O=C(Cc1ccc(CCCCc2ccccc2)cc1)NO` [Cpd 4], for which, under setting [1], the “4-fold synergy Fluconazole/Cpd 4” value is 0.25–0.5 ug/ml Cpd 4 and the “4-fold synergy Itraconazole/Cpd 4” value is reported as 0.25–0.5 ug/ml Cpd 4. Also, under “itraconazole, fluconazole, all azole-resistant mutants tested”, the “Compound 4 concentration for synergy with azoles” value was no more than 4 µg/mL. Also, the “Compound 4 concentration lowering itraconazole MIC80” value (itraconazole-resistant mutants) is no more than 44 µg/mL.
`OC(Cn1cncn1)(Cn1cncn1)c1ccc(F)cc1F` [fluconazole]: the MIC80 (Nakaseomyces glabratus, ATCC90030, azole alone) stood at 32 µg/mL (≈ 104 µM) and the MIC80 (azole alone) was in the range of 32 to 64 µg/mL. Besides, the MIC fell in the range of 4 to 32 µg/mL (Nakaseomyces glabratus, ATCC90030, read-out: fluconazole MIC in presence of Compound 4, fluconazole-resistant mutants) and 4 to 8 µg/mL (Nakaseomyces glabratus, ATCC90030, read-out: fluconazole MIC in presence of Compound 4, susceptible parent).
